According to patent US8475804B2 (priority 2009, dated 2013):
Counter-ions that a name gives are not always drawn. Like-named read-outs stand apart in the source and are kept apart here. Residues, ends and D or L forms follow the SMILES beside them. *: point of attachment. Cbz = O=C(OCc1ccccc1)*

Tested on: Ebola virus
Assay: microbe, parasite or virus in culture
Assay type: cell-based, Ebolavirus (EBOV)
Conditions: for Emax: read-out: Max Effect

| SMILES | IC50 (Zaire ebolavirus, Vero) | Emax (Zaire ebolavirus, Vero) | also measured |
| --- | --- | --- | --- |
| O=[N+]([O-])c1ccccc1OCCCCCOc1ccccc1[N+](=O)[O-] [1,5′-Bis(2-Nitrophenoxy)pentane] |  |  | Max Effect: 0.531; IC50 (read-out: IC50): 13 µM |
| COc1cc(C=C2CCCC(=Cc3ccc(O)c(OC)c3)C2=O)ccc1O [2,6-Divanillylidenecyclohexanone] | 6.4 µM | 93.2% |  |
| CCCC[C@H]1C(=O)O[C@H](C)[C@H](NC(=O)c2cccc(NC=O)c2OC)C(=O)O[C@@H](C)[C@@H]1OC(=O)CC(C)C [2-Methoxy-antimycin A3] |  |  | Max Effect: 0.791; IC50 (read-out: IC50): 1.2 µM |
| Nc1ncnc2c1c(I)cn2[C@@H]1O[C@H](CO)[C@@H](O)[C@H]1O [5-Iodotubercidin] |  |  | Max Effect: 0.369 |
| N[C@H]1CC[C@@H](c2ccc(Cl)c(Cl)c2)c2ccccc21 [(1S,4S)-Desmethyl Sertraline, Hydrochloride] | 1.3 µM | 68.8% |  |
| COc1cc(C[C@H]2C(=O)OC[C@@H]2Cc2ccc(OC)c(OC)c2)ccc1O [(−)-Arctigenin] |  |  | Max Effect: 0.411 |
| O=c1cnn([C@@H]2O[C@H](CO)[C@@H](O)[C@H]2O)c(=O)[nH]1 [Agent 6-Azauridine, 6-Azauridine] | < 1 µM | 80% |  |
| CCN(CCCc1ccccc1)CCCc1ccccc1 [Alverine Citrate] |  | 49.5% |  |
| CCOC(=O)C1=C(COCCN)NC(C)=C(C(=O)OC)C1c1ccccc1Cl (centres unmarked) [Amlodipine Besylate] | 13.2 µM | 52.8% |  |
| COc1ccc(C[C@H]2NC[C@H](O)[C@H]2OC(C)=O)cc1 [Anisomycin] |  |  | Max Effect: 0.900; IC50 (read-out: IC50): < 1.6 µM |
| CCOC(=O)c1c(CSc2ccccc2)n(C)c2cc(Br)c(O)c(CN(C)C)c12 [Arbidol] | 6 µM | 59.2% |  |
| CC(=O)OC[C@H]1O[C@@H]([S-])[C@H](OC(C)=O)[C@@H](OC(C)=O)[C@@H]1OC(C)=O.CCP(CC)CC.[Au+] [Auranofin] |  |  | IC50 (read-out: IC50): < 1 µM |
| CN1CCCC(n2nc(Cc3ccc(Cl)cc3)c3ccccc3c2=O)CC1 (centres unmarked) [Azelastine] | 122 µM | 64.8% |  |
| CO/C1=C\C(C)=C\[C@@H](C)[C@@H](O)[C@@H](C)C/C(C)=C/C=C/[C@H](OC)[C@@H]([C@@H](C)[C@@H](O)[C@H](C)[C@@]2(O)C[C@@H](O)[C@H](C)[C@@H](C(C)C)O2)OC1=O [Bafilomycin A1] |  |  | Max Effect: 0.880; IC50 (read-out: IC50): 0.019 µM |
| Nc1nc(-c2nn(Cc3ccccc3F)c3ncccc23)ncc1C1CC1 [Bay 41-2272] |  |  | Max Effect: 0.900; IC50 (read-out: IC50): < 0.5 µM |
| CC(O)(CS(=O)(=O)c1ccc(F)cc1)C(=O)Nc1ccc(C#N)c(C(F)(F)F)c1 (centres unmarked) [Bicalutamide] |  | 46.4% |  |
| C[C@H]1CCC/C=C/[C@@H]2C[C@H](O)C[C@H]2[C@H](O)/C=C/C(=O)O1 [Brefeldin A] |  |  | Max Effect: 0.900; IC50 (read-out: IC50): < 1.6 µM |
| CC(C)C[C@H]1C(=O)N2CCC[C@H]2[C@]2(O)O[C@](NC(=O)[C@@H]3C=C4c5cccc6[nH]c(Br)c(c56)C[C@H]4N(C)C3)(C(C)C)C(=O)N12 [Bromocriptine Mesylate] |  | 42.2% |  |
| O=C(/C=C/c1ccc(O)c(O)c1)OCCc1ccccc1 [CAPE] |  |  | Max Effect: 0.368 |
| Nc1nc2ccc(Cl)cc2c2nc(-c3ccco3)nn12 [CGS 15943] |  | 44.9% |  |
| NCCNS(=O)(=O)c1ccc(Cl)c2ccncc12 [CKI7] |  |  | Max Effect: 0.565; IC50 (read-out: IC50): 10.7 µM |

| SMILES | IC50 (Zaire ebolavirus, Vero) | Emax (Zaire ebolavirus, Vero) | also measured |
| --- | --- | --- | --- |
| CNc1ccc2oc(C[C@H]3O[C@@]4(CC[C@H]3C)O[C@H]([C@H](C)C(=O)c3ccc[nH]3)[C@H](C)C[C@H]4C)nc2c1C(=O)O [Calcimycin A23187] |  |  | Max Effect: 0.789; IC50 (read-out: IC50): 1.1 µM |
| CC(C)[C@H](NC(=O)OCc1ccccc1)C(=O)N[C@H](C=O)Cc1ccccc1 [Carbobenzoxy-valinyl-phenylalaninal] (Cbz-Val-Phe-aldehyde) | 2.9 µM | 60.7% |  |
| N#CC(C#N)=NNc1ccc(OC(F)(F)F)cc1 [Carbonyl cyanide 4-(trifluoromethoxy)phenylhydrazone] | 4.5 µM | 75.2% |  |
| CC(=O)OCC1=C(C(=O)O)N2C(=O)[C@@H](NC(=O)CSc3ccncc3)[C@H]2SC1 [Cephapirin Sodium] | 9.8 µM | 66.2% |  |
| COc1ccc2cc1Oc1ccc(cc1)C[C@H]1c3c(cc4c(c3Oc3cc5c(cc3OC)CCN(C)[C@@H]5C2)OCO4)CCN1C [Cepharanthine] | 5.6 µM | 65.2% |  |
| COCc1c(C(C)C)nc(C(C)C)c(/C=C/[C@@H](O)C[C@@H](O)CC(=O)O)c1-c1ccc(F)cc1 [Cerivastatin Sodium] | 0.1 µM | 44.3% |  |
| CN1CCN(C(c2ccccc2)c2ccc(Cl)cc2)CC1 (centres unmarked) [Chlorcyclizine Hydrochloride] |  | 45.6% |  |
| CC(=O)O.CC(=O)O.NC(=N\CCCCCC/N=C(N)/N=C(\N)Nc1ccc(Cl)cc1)/N=C(\N)Nc1ccc(Cl)cc1 [Chlorhexidine Diacetate] |  |  | Max Effect: 0.543; IC50 (read-out: IC50): 6.1 µM |
| CN(C)CCOC(C)(c1ccccc1)c1ccc(Cl)cc1 (centres unmarked) [Chlorphenoxamine Hydrochloride] | 5 µM | 78.9% |  |
| CO[C@@H]1[C@H](O)C[C@@H](O[C@@H]2C[C@H](Oc3cc4cc5c(c(O)c4c(O)c3C)C(=O)[C@@H](O[C@H]3C[C@@H](O[C@H]4C[C@@H](O[C@H]6C[C@](C)(O)[C@@H](OC(C)=O)[C@H](C)O6)[C@H](O)[C@@H](C)O4)[C@H](O)[C@@H](C)O3)[C@H]([C@H](OC)C(=O)[C@@H](O)[C@@H](C)O)C5)O[C@H](C)[C@@H]2OC(C)=O)O[C@@H]1C [Chromomycin A3] |  |  | Max Effect: 0.629; IC50 (read-out: IC50): 0.4 µM |
| CC(C)C(=O)OCC(=O)[C@@]12O[C@H](C3CCCCC3)O[C@@H]1C[C@H]1[C@@H]3CCC4=CC(=O)C=C[C@]4(C)[C@H]3[C@@H](O)C[C@@]12C [Ciclesonide] | 16 µM | 51.2% |  |
| Cc1cc(C2CCCCC2)n(O)c(=O)c1 [Ciclopirox Olamine] |  | 43.1% |  |
| CC1(C)C[C@@H]1C(=O)N/C(=C\CCCCSC[C@H](N)C(=O)O)C(=O)O [Cilastatin Sodium] | 8.8 µM | 91.2% |  |
| C[C@@H]1C[C@@H]([C@H](O)CC2CC(=O)NC(=O)C2)C(=O)[C@@H](C)C1 [Cycloheximide] | < 1.6 µM | 90% |  |
| CN1CCC(=C2c3ccccc3C=Cc3ccccc32)CC1 [Cyproheptadine Hydrochloride] |  | 49.3% |  |
| C#C[C@]1(O)CC[C@H]2[C@@H]3CCC4=Cc5oncc5C[C@]4(C)[C@H]3CC[C@@]21C [Danazol] | 12.9 µM | 54.6% |  |
| COc1cc2c(cc1OC)[C@@H]1C(=O)c3ccc4c(c3O[C@@H]1CO2)C=CC(C)(C)O4 [Deguelin] | 0.5 µM | 41.8% |  |
| CC/C(=C(/CC)c1ccc(O)cc1)c1ccc(O)cc1 [Diethylstilbestrol] |  | 43.6% |  |
| c1ccc2c(c1)[I+]c1ccccc1-2 [Diphenyleneiodonium chloride] | < 1.6 µM | 80% |  |
| CCCCCCCCCCCC[N+](C)(C)CCOc1ccccc1 [Domiphen Bromide] | 7.5 µM | 71.5% |  |
| CN(C)CCOC(C)(c1ccccc1)c1ccccn1 (centres unmarked) [Doxylamine Succinate] | 5.2 µM | 73.1% |  |

| SMILES | IC50 (Zaire ebolavirus, Vero) | Emax (Zaire ebolavirus, Vero) | also measured |
| --- | --- | --- | --- |
| CCOc1ccc(/C=C2\NCCc3cc(OCC)c(OCC)cc32)cc1OCC [Drotaverine Hydrochloride] |  | 36.7% |  |
| O=C([O-])CN(CCN(CC(=O)[O-])CC(=O)[O-])CC(=O)[O-].[Ca+2].[Na+].[Na+] [Edetate Calcium Disodium] | 6.6 µM | 84.1% |  |
| CC[C@H]1CN2CCc3cc(OC)c(OC)cc3[C@@H]2C[C@@H]1C[C@H]1NCCc2cc(OC)c(OC)cc21 [Emetine dihydrochloride hydrate] | 0.3 µM | 89.3% |  |
| CC[C@H](C)[C@H](NC(=O)[C@H]([C@@H](C)CC)N(C)C(C)=O)C(=O)N[C@H](C(=O)N[C@@H](CC(C)C)C(=O)[C@@]1(C)CO1)[C@@H](C)O [Epoxomicin] |  |  | Max Effect: 0.466 |
| C[C@]12CC[C@H]3C(=CCc4cc(O)ccc43)[C@@H]1CCC2=O [Equilin] |  | 42.4% |  |
| COc1ccc(-c2nc(C(=O)N3CCN(C)CC3)sc2-c2ccc(OC)cc2)cc1 [FR122047] |  |  | Max Effect: 0.688; IC50 (read-out: IC50): 3.7 µM |
| COC(=O)Nc1nc2ccc(Sc3ccccc3)cc2[nH]1 [Fenbendazole] | 5.8 µM | 50% |  |
| CC(C(=O)[O-])c1cccc(Oc2ccccc2)c1.CC(C(=O)[O-])c1cccc(Oc2ccccc2)c1.[Ca+2] (centres unmarked) [Fenoprofen Calcium] |  |  | Max Effect: 0.454 |
| CC1=C(/C=C/C(C)=C/C=C/C(C)=C/C(=O)Nc2ccc(O)cc2)C(C)(C)CCC1 [Fenretinide] |  | 42.6% |  |
| Nc1[nH]c(=O)ncc1F [Flucytosine] | 4.4 µM | 79.3% |  |
| Fc1ccc(C(c2ccc(F)cc2)N2CCN(C/C=C/c3ccccc3)CC2)cc1 [Flunarizine Hydrochloride] |  | 40.2% |  |
| Clc1cc(Cl)c(OCC#CI)cc1Cl [Haloprogin] | 2.9 µM | 58.8% |  |
| Oc1c(Cl)cc(Cl)c(Cl)c1Cc1c(O)c(Cl)cc(Cl)c1Cl [Hexachlorophene] | 3.2 µM | 71.3% |  |
| CN1CCCN(C(c2ccccc2)c2ccc(Cl)cc2)CC1 (centres unmarked) [Homochlorcyclizine dihydrochloride] | 8.7 µM | 50.8% |  |
| CCCCCC(=O)O[C@]1(C(C)=O)CC[C@H]2[C@@H]3CCC4=CC(=O)CC[C@]4(C)[C@H]3CC[C@@]21C [Hydroxyprogesterone Caproate] | 3.7 µM | 71.9% |  |
| O=C(Nc1cc(C(F)(F)F)cc(C(F)(F)F)c1)c1cc(Cl)ccc1O [IMD-0354] | 3.1 µM | 66.1% |  |
| NC(=O)C[C@H](N)C(=O)O [L-Asparagine] | 7.2 µM | 77.1% |  |
| C/C1=C/C(=O)O[C@@H]2C[C@@H](CC[C@H](C)/C=C\CC1)O[C@@](O)([C@@H]1CSC(=O)N1)C2 [Latrunculin B] |  |  | Max Effect: 0.621; IC50 (read-out: IC50): 0.4 µM |
| CC(=O)N[C@@H](CC(C)C)C(=O)N[C@@H](CC(C)C)C(=O)N[C@H](C=O)CCCNC(=N)N [Leupeptin HCl] | 3.2 µM | 86.5% |  |
| C=CC(C)(C)c1cc(/C=C/C(=O)c2ccc(O)cc2)c(OC)cc1O [Licochalcone-A] |  |  | Max Effect: 0.522; IC50 (read-out: IC50): 4.7 µM |
| CN(C)C(=O)C(CCN1CCC(O)(c2ccc(Cl)cc2)CC1)(c1ccccc1)c1ccccc1 [Loperamide Hydrochloride] |  |  | Max Effect (Hydrochloride): 0.418 |
